Data as given in patent publication US12065408B2, “Benzaldehyde compounds with direct polymer destabilizing effects to treat sickle cell disease” (VIRGINIA COMMONWEALTH UNIVERSITY, priority 2022, dated 2024).

Experiments:
[1] = system: RBC sickling; experiment: Sickle inhibition in SS blood suspensions under hypoxia (2.5% oxygen); assay type: cell-based; settings: Homo sapiens, 2 mM compound, homozygous SCD blood, 4 biological replicates
Protocol: All compounds (Comp 1-13) and comparator molecules (VZHE-039, PP-14, INN-310, and Voxelotor) were evaluated following established procedures. Blood samples from individual donors with homozygous SCD (obtained with informed consent) were diluted using Hemox buffer solution with the addition of glucose (10 mM) and BSA (0.2%) to adjust hematocrit of the blood suspensions to 20%, which standardizes the procedure to normalize the ratio of RBCs to drug, for assay consistency and reproducibility. Briefly, blood suspensions were incubated under room air in the presence of various concentrations of test compounds (0-2 mM) at 37° ° C. for 1 hour in 96-well round bottom plates. Subsequently, the suspensions were incubated with a hypoxic gas mixture (2.5% Oxygen gas/balance Nitrogen gas) at 37° C. for up to 2 hours prior to fixation with 2% glutaraldehyde solution without exposure to air. The fixated blood aliquots were evaluated by microscopic morphological analysis (image analysis on Image J software) to identify the proportion of sickled and non-sickled RBCs, and sickle inhibition calculated based on the % change from negative control (DMSO).

[2] = system: RBC sickling; experiment: Oxygen-independent sickle inhibition in SS blood suspensions under anoxia (100% nitrogen); assay type: cell-based, human; settings: for inhibition at 2000 µM: Homo sapiens, 2 mM compound, homozygous SCD blood, 4 biological replicates; for inhibition at 2000 µM / polymer destabilizing effects (sickle inhibition in anoxia), in words: anoxia; for polymer destabilizing effects in anoxia time-course experiments, in words: up to 2.5 h
Protocol: To establish oxygen-independent sickle inhibition, the incubation chamber was subsequently opened and exposed to room air for 15 minutes to ensure complete re-oxygenation and reversal of the sickled cells to normal round cells. Reversal was confirmed by microscopy. The incubation chamber was then closed, and the assay was repeated with incubation in 100% nitrogen gas for 1 hour (for screening), or up to 2.5 h (for time-course studies), with collection and fixation of blood aliquots at defined intervals. Aliquot samples were again subjected to microscopic morphological analysis of bright field images to identify the proportion of sickled and non-sickled cells, and sickle inhibition calculated.

[3] = 14-day repeat-dose safety (clinical observations, histopathology) in rats; assay type: in vivo, rat; settings: 100 mg/kg oral once daily for 14 days
Protocol: (§1) Repeat oral doses of each compound were administered by oral gavage for 14 days to male and female SD rats (n=3). […] Steady state exposures for the final dosing interval on Day 14 were similar to total compound exposure from single-dose PK.
(§2) Repeat doses of each compound were administered once daily as oral suspensions by gavage in 0.5% carboxy methylcellulose for 14 days at 100 mg/kg. Whole blood was collected at 7 time-points for up to 24 hours during the final dosing interval on Day 14. Clinical observations, body weights, and food consumption were recorded throughout the 14 day study. Clinical chemistry and hematologic parameters were assessed, and histopathology was performed on organs after 14 days of exposure to study drug.

[4] = Single-dose oral pharmacokinetics in rats; assay type: in vivo, rat
Protocol: Single-dose pharmacokinetics (PK) in male Sprague Dawley (SD) rats (n=4) were assessed for each compound, and the maximum or peak whole blood concentration and area under the curve are shown in Table 5.
Single doses of each compound were administered as oral suspensions by gavage in 0.5% carboxy methylcellulose at 100 mg/kg. Whole blood levels were collected for at least 72 hours after dose administration. Bioanalyses were performed with liquid chromatography-tandem mass spectrometry […].

[5] = target: T1, Hb (Homo sapiens, UniProt P69905); experiment: Occupancy/dose-dependent p50 shift in human non-sickle blood; assay type: cell-based; settings: compared to Voxelotor at equivalent drug-Hb occupancy levels
T1 construct: Hemoglobin modification, studies using non-sickling AA blood; from tissue; host or cells: non-sickling AA blood (red cells)
Protocol: Non-sickling human blood was incubated with test compounds at 0.25-2 mM concentrations at 37 °C for 1 hour in 96-well round bottom plates. At conclusion, RBCs were washed once with PBS, followed by lysis with deionized water. Approximately 100 μl aliquots of individual lysates were added to 3 mL of 0.1M potassium phosphate buffer, pH 7.0 in a cuvette and subjected to hemoximetry analysis using a Hemox™ Analyzer (TCS Scientific Corp.) as previously described. Change in p50 values (Δp50) was calculated by subtracting the p50 values of treated samples from the value of the control sample and expressing the difference as a percentage of control p50 values.

[6] = ADME properties / oral bioavailability; settings: in vivo
[7] = 14-day repeat-dose oral pharmacokinetics in rats; assay type: in vivo, rat; settings: 14-day repeat oral doses
Protocol: as §1, §2

T1 sequence (P69905 2-142 limits assumed): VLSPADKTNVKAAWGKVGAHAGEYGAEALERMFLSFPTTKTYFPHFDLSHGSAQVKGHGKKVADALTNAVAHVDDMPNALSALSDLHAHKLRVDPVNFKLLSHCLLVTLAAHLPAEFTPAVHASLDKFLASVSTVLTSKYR
T1 sequence (P68871 2-147 partner limits assumed): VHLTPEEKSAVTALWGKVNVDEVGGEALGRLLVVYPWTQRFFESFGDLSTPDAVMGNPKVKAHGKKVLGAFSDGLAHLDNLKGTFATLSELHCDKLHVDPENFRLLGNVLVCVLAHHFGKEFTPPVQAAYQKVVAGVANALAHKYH

SMILES	inhibition at 2000 µM [1]	inhibition at 2000 µM [2]	polymer destabilizing effects (sickle inhibition in anoxia), in words [2]	clinical and histopathologic changes after 14 days of exposure [3]	polymer destabilizing effects in anoxia time-course experiments, in words [2]	oral exposure levels, single dose, in words [4]	changes in p50 of Hb in human blood [5]	absorption, distribution, metabolism and elimination (ADME) properties [6]	oral exposure levels, repeat dose, in words [7]
CC(C)n1nccc1-c1ncccc1COc1cccc(O)c1C=O [Voxelotor, reference compound]	79.9 ± 6.2%	1.5 ± 5.5%	did not demonstrate any sickle inhibition in anoxic conditions						
O=Cc1c(O)cccc1OCc1ncccn1 [Comp 11, 2-hydroxy-6-(pyrimidin-2-ylmethoxy)benzaldehyde]	67.4 ± 18.2%	45.1 ± 10.8%							
O=Cc1c(O)cccc1OCc1cccc(CO)n1 [VZHE-039, reference compound]	75.3 ± 14.3%	68.9 ± 17.7%		Both clinical and histopathologic changes in the liver, including hepatocyte necrosis					
O=Cc1c(O)cccc1OCc1cccnc1F [Comp 6, 2-((2-fluoropyridin-3-yl)methoxy)-6-hydroxybenzaldehyde]	67.1 ± 5.8%	32.6 ± 28.5%							
O=Cc1c(F)cc(F)cc1OCc1ccccn1 [Comp 9, 2,4-difluoro-6-(pyridin-2-ylmethoxy)benzaldehyde]	68.1 ± 29.8%	0%	completely negates the polymer destabilization effects						
O=Cc1c(O)cccc1OCc1cncnc1 [Comp 10, 2-hydroxy-6-(pyrimidin-5-ylmethoxy)benzaldehyde]	76.6 ± 10.9%	75.6 ± 18.5%							
O=Cc1c(O)cccc1OCc1cccnc1Cl [Comp 7, 2-((2-chloropyridin-3-yl)methoxy)-6-hydroxybenzaldehyde]	36.1 ± 19.7%	9.4 ± 10.7%							
O=Cc1c(O)cccc1OCc1cccnc1 [Comp 1, 2-hydroxy-6-(pyridin-3-ylmethoxy)benzaldehyde]	74.8 ± 15.9%	71.9 ± 16%	most potent polymer destabilizers discovered to date	No clinical or histopathologic changes	most potent and sustained polymer destabilizing effects observed to date	greatest oral exposure levels observed to date	relatively weak changes in p50	acceptable	
COc1ccc(OCc2cccc(CO)n2)c(C=O)c1 [TD-7, reference compound]	80.6 ± 5.8%	20.4 ± 2.9%							
COc1ccc(OCc2ccccn2)c(C=O)c1 [INN-310, reference compound]	69.9 ± 20%	17.9 ± 7%	only weak potency in anoxia						
O=Cc1c(O)cccc1OCc1ccccc1 [Reference A, 2-(benzyloxy)-6-hydroxybenzaldehyde, reference compound]			potent polymer destabilizing effects						
O=Cc1c(O)cccc1OCc1cncc(F)c1 [Comp 4, 2-((5-fluoropyridin-3-yl)methoxy)-6-hydroxybenzaldehyde]	64.3 ± 24.5%	69.6 ± 13.4%							
O=Cc1c(F)cc(F)cc1OCc1ncccc1F [Comp 13, 2,4-difluoro-6-((3-fluoropyridin-2-yl)methoxy)benzaldehyde]	63.6 ± 24.3%	-0.5 ± 2.7%	completely negates the polymer destabilization effects						
O=Cc1c(O)cccc1OCc1ccncc1 [Comp 3, 2-hydroxy-6-(pyridin-4-ylmethoxy)benzaldehyde]	54.1 ± 14.7%	26.2 ± 8.6%							
O=Cc1c(O)cccc1OCc1ccccn1 [Comp 2, 2-hydroxy-6-(pyridin-2-ylmethoxy)benzaldehyde]	72.8 ± 13%	63.2 ± 17.2%	most potent polymer destabilizers discovered to date	No clinical or histopathologic changes	most potent and sustained polymer destabilizing effects observed to date	greatest oral exposure levels observed to date	relatively weak changes in p50	acceptable	greatest oral exposure levels observed to date
O=Cc1c(O)cccc1OCc1ncccc1Cl [Comp 8, 2-((3-chloropyridin-2-yl)methoxy)-6-hydroxybenzaldehyde]	69.7 ± 8%	18.3 ± 8.4%							
O=Cc1c(OCc2cccnc2)ccc(F)c1O [Comp 12, 3-fluoro-2-hydroxy-6-(pyridin-3-ylmethoxy)benzaldehyde]	68.6 ± 12%	28.7 ± 6.9%	significantly reduced the potency of polymer inhibition						
O=Cc1c(O)cccc1OCc1ncccc1F [Comp 5, 2-((3-fluoropyridin-2-yl)methoxy)-6-hydroxybenzaldehyde]	66.6 ± 9.4%	66.5 ± 21.1%		No clinical or histopathologic changes		greatest oral exposure levels observed to date	relatively weak changes in p50	acceptable	greatest oral exposure levels observed to date
